Reference: ChEMBL document CHEMBL2021819, “CoA Adducts of 4-Oxo-4-Phenylbut-2-enoates: Inhibitors of MenB from the M. tuberculosis Menaquinone Biosynthesis Pathway” (ACS Med Chem Lett, 2011)
Converted amounts (≈) assume the structure as drawn. The source made the active and inactive calls. The rule behind the calls is not given here.

Columns and labels:
[1] = molecular target: T1, 1,4-dihydroxy-2-naphthoyl-CoA synthase (Mycobacterium tuberculosis, UniProt P9WNP5); test: Inhibition of Mycobacterium tuberculosis MenB expressed in Escherichia coli BL21 (DE3) by Lineweaver-Burk plot analysis
T1 sequence (P9WNP5 whole entry): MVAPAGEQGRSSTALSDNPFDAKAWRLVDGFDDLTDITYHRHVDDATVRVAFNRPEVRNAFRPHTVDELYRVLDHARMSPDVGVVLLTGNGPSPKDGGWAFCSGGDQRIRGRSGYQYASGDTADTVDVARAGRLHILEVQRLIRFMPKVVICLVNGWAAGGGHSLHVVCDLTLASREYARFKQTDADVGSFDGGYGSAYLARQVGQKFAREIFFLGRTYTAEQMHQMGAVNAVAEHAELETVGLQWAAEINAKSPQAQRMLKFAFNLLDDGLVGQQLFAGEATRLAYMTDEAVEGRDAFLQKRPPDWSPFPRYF

[2] = molecular target: T1, 1,4-dihydroxy-2-naphthoyl-CoA synthase; test: Non-competitive inhibition of Mycobacterium tuberculosis MenB expressed in Escherichia coli BL21 (DE3) by Lineweaver-Burk plot analysis
[3] = molecular target: T1, 1,4-dihydroxy-2-naphthoyl-CoA synthase; test: Inhibition of Mycobacterium tuberculosis MenB expressed in Escherichia coli BL21 (DE3) assessed as formation of DHNA-CoA from OSB-CoA by enzyme coupled-assay in presence of Escherichia coli MenE
[4] = Half life of the compound at pH 7.4; type: physicochemical
[5] = tested on: Mycobacterium tuberculosis; test: Antimycobacterial activity against Mycobacterium tuberculosis H37Rv after 5 to 7 days under […] condition by microplate dilution assay; type: functional
[6] = molecular target: T1, 1,4-dihydroxy-2-naphthoyl-CoA synthase; test: Inhibition of Mycobacterium tuberculosis MenB expressed in Escherichia coli BL21 (DE3) assessed as formation of DHNA-CoA from OSB-CoA by enzyme coupled-assay in presence of Escherichia coli MenE preincubated for 1 hr
[7] = molecular target: T2, 1,4-dihydroxy-2-naphthoyl-CoA synthase (Mycobacterium tuberculosis) (UniProt P9WNP5); test: Inhibition of Mycobacterium tuberculosis MenB expressed in Escherichia coli BL21 (DE3) assessed as formation of DHNA-CoA from OSB-CoA at 50 uM by enzyme coupled-assay in presence of Escherichia coli MenE
T2 sequence (whole entry): T1 sequence (P9WNP5 whole entry)

[8] = Chemical stability of the compound at pH 7.4; type: physicochemical; settings: buffer
[9] = Selectivity index, ratio of cytotoxicity against african green monkey Vero cells to MIC for Mycobacterium tuberculosis H37Rv; type: functional
[10] = tested on: Mycobacterium tuberculosis; test: Antibacterial activity against non-replicating Mycobacterium tuberculosis H37Rv by low oxygen recovery assay; type: functional

`CC(C)(COP(=O)(O)OP(=O)(O)OC[C@H]1O[C@@H](n2cnc3c(N)ncnc32)[C@H](O)[C@@H]1OP(=O)(O)O)[C@@H](O)C(=O)NCCC(=O)NCCSC(CC(=O)c1ccc(Cl)cc1Cl)C(=O)O` (stereo partly drawn) showed a Ki [1] of 49 nM, a Ki [2] of 286 nM and an IC50 [3] of 106 nM.

Molecule `COc1ccccc1C(=O)CC(SCCNC(=O)CCNC(=O)[C@H](O)C(C)(C)COP(=O)(O)OP(=O)(O)OC[C@H]1O[C@@H](n2cnc3c(N)ncnc32)[C@H](O)[C@@H]1OP(=O)(O)O)C(=O)O` (stereo partly drawn) has an IC50 [3] of 12100 nM.

In the case of `CC(C)(COP(=O)(O)OP(=O)(O)OC[C@H]1O[C@@H](n2cnc3c(N)ncnc32)[C@H](O)[C@@H]1OP(=O)(O)O)[C@@H](O)C(=O)NCCC(=O)NCCSC(CC(=O)c1ccccc1Cl)C(=O)O` (stereo partly drawn), the Ki [1] is reported as 97 nM, the Ki [2] is reported as 792 nM and the IC50 [3] is reported as 103 nM.

Work on `COc1ccccc1C(=O)CC(N[C@@H](C)c1ccccc1)C(=O)O` (stereo partly drawn) yielded a half-life [4] of 11.6 h, an MIC [5] of 12.5 µg/mL (≈ 38.2 µM) and an IC50 [6] of over 120000 nM. It also gave an IC50 [3] of over 120000 nM.

For `C[C@H](SC(CC(=O)c1ccc(Cl)cc1)C(=O)O)c1ccccc1` (stereo partly drawn), the inhibition [7] was “inactive” and the Stability [8] was “Stable”.

For `COC(=O)/C=C/C(=O)c1ccc(F)cc1`, the MIC [5] was 0.64 µg/mL (≈ 3.07 µM) and the “Selectivity Index” value [9] was over 20.

In the case of `C[C@H](NC(CC(=O)c1ccc(F)cc1)C(=O)O)c1ccccc1` (stereo partly drawn), the half-life [4] is reported as 12.2 h, the MIC [5] is reported as 12.5 µg/mL (≈ 39.6 µM) and the IC50 [6] is reported as 14400 nM. It also gave an IC50 [3] of over 120000 nM.

With `C[C@H](NC(CC(O)c1ccc(Cl)cc1)C(=O)O)c1ccccc1` (stereo partly drawn) the inhibition [7] was “inactive” and the Stability [8] was “Stable”.

Molecule `CC(C)(COP(=O)(O)OP(=O)(O)OC[C@H]1O[C@@H](n2cnc3c(N)ncnc32)[C@H](O)[C@@H]1OP(=O)(O)O)[C@@H](O)C(=O)NCCC(=O)NCCSC(CC(=O)c1ccccc1Br)C(=O)O` (stereo partly drawn) has an IC50 [3] of 135 nM.

Molecule `C[C@H](NC(CC(=O)c1ccccc1C(F)(F)F)C(=O)O)c1ccccc1` (stereo partly drawn) has a half-life [4] of 0.2 h, an MIC [5] of 25 µg/mL (≈ 68.4 µM) and an IC50 [6] of 3200 nM. The IC50 [3] was over 120000 nM.

In the case of `O=C(CC1N=C(c2ccccc2)OC1=O)c1ccc(Cl)cc1` (stereo not drawn), the inhibition [7] is reported as “inactive” and the Stability [8] is reported as “Stable”.

`COc1ccc(C(=O)CC(SCCNC(=O)CCNC(=O)[C@H](O)C(C)(C)COP(=O)(O)OP(=O)(O)OC[C@H]2O[C@@H](n3cnc4c(N)ncnc43)[C@H](O)[C@@H]2OP(=O)(O)O)C(=O)O)cc1` (stereo partly drawn) gave an IC50 [3] of 33500 nM.

For `O=C(CC(NC(=O)c1ccccc1)C(=O)O)c1ccc(Cl)cc1` (stereo not drawn), the inhibition [7] was “inactive” and the Stability [8] was “Stable”.

With `CC(C(=O)c1ccc(Cl)cc1)C(N[C@@H](C)c1ccccc1)C(=O)O` (stereo partly drawn) the inhibition [7] was “Active” and the Stability [8] was “Stable”.

`C[C@H](NC(CC(=O)c1ccccc1)C(=O)O)c1ccccc1` (stereo partly drawn) showed a half-life [4] of 11.6 h, an MIC [5] of 6.25 µg/mL (≈ 21 µM) and an IC50 [6] of 52700 nM. For the same molecule, the IC50 [3] was over 120000 nM.

`CC(C)(COP(=O)(O)OP(=O)(O)OC[C@H]1O[C@@H](n2cnc3c(N)ncnc32)[C@H](O)[C@@H]1OP(=O)(O)O)[C@@H](O)C(=O)NCCC(=O)NCCSC(=O)CCC(=O)c1ccc(Cl)cc1Cl` showed an IC50 [3] of 2200 nM.

In the case of `COC(=O)/C=C/C(=O)c1ccc(Cl)cc1`, the MIC [10] is reported as 1.5 µg/mL (≈ 6.68 µM), the MIC [5] is reported as 0.64 µg/mL (≈ 2.85 µM) and the “Selectivity Index” value [9] is reported as over 20.

`CC(C)(COP(=O)(O)OP(=O)(O)OC[C@H]1O[C@@H](n2cnc3c(N)ncnc32)[C@H](O)[C@@H]1OP(=O)(O)O)[C@@H](O)C(=O)NCCC(=O)NCCSC(CC(=O)c1cccc(Cl)c1)C(=O)O` (stereo partly drawn) gave an IC50 [3] of 14100 nM.

In the case of `C[C@H](NC(C(=O)O)C(F)(F)C(=O)c1ccc(Cl)cc1)c1ccccc1` (stereo partly drawn), the inhibition [7] is reported as “inactive” and the Stability [8] is reported as “Stable”.

In the case of `CC(C)(COP(=O)(O)OP(=O)(O)OC[C@H]1O[C@@H](n2cnc3c(N)ncnc32)[C@H](O)[C@@H]1OP(=O)(O)O)[C@@H](O)C(=O)NCCC(=O)NCCSC(CC(=O)c1ccccc1I)C(=O)O` (stereo partly drawn), the IC50 [3] is reported as 421 nM.

Molecule `CC(C)(COP(=O)(O)OP(=O)(O)OC[C@H]1O[C@@H](n2cnc3c(N)ncnc32)[C@H](O)[C@@H]1OP(=O)(O)O)[C@@H](O)C(=O)NCCC(=O)NCCSC(CC(=O)c1ccccc1F)C(=O)O` (stereo partly drawn) has an IC50 [3] of 204 nM.

For `C[C@H](NC(CC(=O)c1ccc(Cl)cc1)C(=O)O)c1ccccc1` (stereo partly drawn), the half-life [4] was 6.8 h, the MIC [5] was 50 µg/mL (≈ 151 µM) and the IC50 [6] was 11700 nM. It also gave an IC50 [3] of over 120000 nM.

With `C[C@H](NC(C(=O)O)C(C)(C)C(=O)c1ccccc1)c1ccccc1` (stereo partly drawn) the inhibition [7] was “inactive” and the Stability [8] was “Stable”.

Molecule `CC(C)(COP(=O)(O)OP(=O)(O)OC[C@H]1O[C@@H](n2cnc3c(N)ncnc32)[C@H](O)[C@@H]1OP(=O)(O)O)[C@@H](O)C(=O)NCCC(=O)NCCSCCC(=O)c1ccc(Cl)cc1Cl` has an IC50 [3] of over 400000 nM.

With `[2H]C([2H])(C(=O)c1ccccc1Cl)C(N[C@@H](C)c1ccccc1)C(=O)O` (stereo partly drawn) the Stability [8] was “Stable”.

For `O=C(O)/C=C/C(=O)c1ccc(Cl)cc1`, the MIC [5] was 25 µg/mL (≈ 119 µM).

Work on `C[C@H](NC(CC(=O)c1ccccc1Cl)C(=O)O)c1ccccc1` (stereo partly drawn) yielded a half-life [4] of 0.4 h, an MIC [5] of 50 µg/mL (≈ 151 µM) and an IC50 [6] of 8400 nM. It also gave an IC50 [3] of over 120000 nM.

`CC(C)(COP(=O)(O)OP(=O)(O)OC[C@H]1O[C@@H](n2cnc3c(N)ncnc32)[C@H](O)[C@@H]1OP(=O)(O)O)[C@@H](O)C(=O)NCCC(=O)NCCSC(CC(=O)c1ccc(Cl)cc1)C(=O)O` (stereo partly drawn) gave a Ki [1] of 350 nM, a Ki [2] of 1630 nM and an IC50 [3] of 468 nM.

Molecule `CC(C)(COP(=O)(O)OP(=O)(O)OC[C@H]1O[C@@H](n2cnc3c(N)ncnc32)[C@H](O)[C@@H]1OP(=O)(O)O)[C@@H](O)C(=O)NCCC(=O)NCCSC(CC(=O)c1ccccc1[N+](=O)[O-])C(=O)O` (stereo partly drawn) has an IC50 [3] of 154 nM.
